The values that follow come from patent publication US20250241926A1, “HETEROCYCLIC COMPOUNDS FOR USE IN THE TREATMENT OF CANCER” (ARTIOS PHARMA LIMITED, priority 2021, published 2025).

In the test the target is T1, Human Polθ polymerase domain (aa1820-2590) (Homo sapiens, UniProt O75417).
T1 construct: Human Polθ polymerase domain (aa1820-2590) was expressed in E. Coli; made in house; host or cells: E. coli
T1 sequence (O75417 1820-2590): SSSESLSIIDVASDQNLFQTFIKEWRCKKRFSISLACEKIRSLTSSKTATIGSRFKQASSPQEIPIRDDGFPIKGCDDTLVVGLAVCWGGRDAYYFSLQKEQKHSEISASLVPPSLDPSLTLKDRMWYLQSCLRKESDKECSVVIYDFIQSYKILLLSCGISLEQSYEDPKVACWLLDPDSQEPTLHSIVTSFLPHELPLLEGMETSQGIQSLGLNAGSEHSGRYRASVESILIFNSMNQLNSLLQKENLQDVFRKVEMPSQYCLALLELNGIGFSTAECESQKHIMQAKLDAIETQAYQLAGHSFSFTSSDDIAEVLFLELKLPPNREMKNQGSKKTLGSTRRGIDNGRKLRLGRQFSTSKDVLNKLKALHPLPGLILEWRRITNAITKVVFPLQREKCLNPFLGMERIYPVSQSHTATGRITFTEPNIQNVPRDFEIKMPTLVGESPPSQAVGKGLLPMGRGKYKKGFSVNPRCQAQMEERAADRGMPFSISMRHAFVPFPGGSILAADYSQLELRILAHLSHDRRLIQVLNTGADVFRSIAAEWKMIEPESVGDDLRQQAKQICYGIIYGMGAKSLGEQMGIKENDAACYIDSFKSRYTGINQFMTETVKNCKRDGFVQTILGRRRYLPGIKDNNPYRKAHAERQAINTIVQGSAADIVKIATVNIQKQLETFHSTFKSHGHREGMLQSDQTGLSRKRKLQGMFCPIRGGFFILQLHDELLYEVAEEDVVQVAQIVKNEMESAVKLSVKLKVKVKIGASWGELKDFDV
As to the kind of experiment: Polθ Polymerase Domain Kinact/Kl Assay (PicoGreen). It counts as biochemical. The settings on record: covalent inhibitors, kobs vs [I] fit, 0.8 nM Polθ, 100 nM DNA substrate. Here is the method:
Polθ Polymerase Domain Kinact/Kl Assay
A PicoGreen assay was used to measure the Kinact and Kl values of covalent compounds that inhibit the activity of Polθ in vitro.
Human Polθ polymerase domain (aa1820-2590) was expressed in E. Coli, purified, aliquoted and stored at −80° C. until required. Polθ substrate was generated from a 1.2:1 mix of DNA II Short to DNA II Long to give a final concentration of […] substrate in annealing buffer (20 mM Tris pH 7.5, 50 mM NaCl). The substrate was heated in 50 mL aliquots to 95° C. in a heating block for 5 min before the heating block switched off, the reaction left to cool to rt and stored at −20° C. until required.
Assay measurements were performed with 1× buffer comprising 25 mM Tris pH 7.5, 12.5 mM NaCl, […], 5% (v/v) glycerol, 0.01% v/v Triton x-100, 0.1 mg/ml BSA, 1 mM DTT. Test compounds were prepared by dilution in 100% DMSO to give a 12 μM intermediate stock of each (100× final top concentration). 100 nL of 23× 1:1.5-fold serial dilutions and a DMSO only control were dispensed using the Tecan dispenser into Greiner 384 well black low volume plates (product code 784076). DMSO concentration was maintained at 1% of the final assay volume by back filling with DMSO.
2× Working stock of substrate (200 nM of DNA substrate and […] dNTPs) and enzyme (1.4 nM Polθ) were made up in assay buffer. 5 μL/well of both enzyme and substrate 2× solutions were dispensed using a Tempest dispenser (Formulatrix) into assay plates that had been pre-dispensed with compound to give a final assay concentration of 100 nM DNA substrate, […] dNTPs and 0.8 nM Polθ. To stop the reaction, […] of a solution containing 25 mM Tris-HCl pH 7.5 and 20 mM EDTA was added at […] (t=0, 2.5, 5, 7.5, 10, 12.5, 15, 20, 25, 30, 35, 40, 45, 50, 55 and 60 min) using the Tempest's time delay function. The plates were covered during the time course to prevent evaporation. After completing the assay, 5 μL of detection reagent (25 mM Tris-HCl pH 7.5 and 2.5% (v/v) PicoGreen) was dispensed into the wells using a Tempest liquid handler (Formulatrix) and plates subsequently read on the CLARIOstar Plus (BMG Labtech) using the default optical settings for fluorescein and the auto gain/focus settings.
All data analysis was carried out using GraphPad Prism V. 8 (GraphPad Software Inc, San Diego, CA) Time course data for each inhibitor concentration was fitted to equation 1 to determine kobs values.^1 Any time points where the control (DMSO alone) reaction was no longer linear were excluded from the analysis.
A secondary plot of kobs vs [I] is used to determine the Kinact and Kl parameters (for a 2-step covalent inhibitor) by fitting to equation 2.1
[formula] • 1) Evaluation of Enzyme Inhibitors in Drug Discovery (Ch9), R. A Copeland, Wiley, 2nd Edition 2013.

Read-outs that look alike come from different tables or passages of the source.

Regarding “2-(((3S)-6-(2-(7- ((E)-4-(Dimethyl- amino)but-2-eno- yl)-1-oxo-2,7- diazaspiro[4.4] nonan-2-yl)ethyl)- 7-fluoro-1- methyl-2-oxo- 1,2,3,4,5,6-hexa- hydrobenzo[b] [1,4]diazocin-3- yl)amino)-6-meth- yl-4-(trifluoro- methyl)nicotino- nitrile [Example 47]”, the kinact/KI stood at 380000 M⁻¹ s⁻¹.

Regarding “2-(((S)-6-(2-((1R,4R)-5- (1-Acryloylazetidin-3-yl)- 2,5-diazabicyclo[2.2.1] heptan-2-yl)ethyl)-7- fluoro-1-methyl-2-oxo- 1,2,3,4,5,6-hexahydro- benzo[b][1,4]diazocin-3- yl)amino)-6-methyl-4- (trifluoromethyl)nicotino- nitrile [Example 18]”, the kinact/KI is 230000 M⁻¹ s⁻¹. As to “2-(((S)-6-(2-((1S,4S)-5- (1-Acryloylazetidin-3-yl)- 2,5-diazabicyclo[2.2.1] heptan-2-yl)ethyl)-7- fluoro-1-methyl-2-oxo- 1,2,3,4,5,6-hexahydro- benzo[b][1,4]diazocin-3- yl)amino)-6-methyl-4- (trifluoromethyl)nicotino- nitrile [Example 19]”, the kinact/KI worked out at 160000 M⁻¹ s⁻¹. Turning to “2-(((S)-6-(2-((R)-4-(1- Acryloylazetidin-3-yl)-2- methylpiperazin-1-yl)eth- yl)-7-fluoro-1-methyl-2- oxo-1,2,3,4,5,6-hexahydro- benzo[b][1,4]diazocin-3- yl)amino)-6-methyl-4- (trifluoromethyl)nicotino- nitrile [Example 15]”, the kinact/KI came out at 280000 M⁻¹ s⁻¹. As to “2-(((S)-6-(2-((S)-4-(1- Acryloylazetidin-3-yl)-2- methylpiperazin-1-yl)eth- yl)-7-fluoro-1-methyl-2- oxo-1,2,3,4,5,6-hexahydro- benzo[b][1,4]diazocin-3- yl)amino)-6-methyl-4- (trifluoromethyl)nicotino- nitrile [Example 14]”, the kinact/KI worked out at 780000 M⁻¹ s⁻¹. Turning to `Cc1cc(C(F)(F)F)c(C#N)c(N[C@H]2CCN(CC(O)CN3CCN(C(=O)/C=C/CN(C)C)CC3)c3c(F)cccc3N(C)C2=O)n1` (mixture of isomers) [Example 32A, 2-(((S)-6-((S/R)-3-(4-((E)-4-(Dimethylamino)but-2-enoyl)piperazin-1-yl)-2-hydroxypropyl)-7-fluoro-1-methyl-2-oxo-1,2,3,4,5,6-hexahydrobenzo[b][1,4]diazocin-3-yl)amino)-6-methyl-4-(trifluoromethyl)nicotinonitrile], the kinact/KI stood at 770000 M⁻¹ s⁻¹. Consider `C=CC(=O)N1CCN(CC(O)CN2CC[C@H](Nc3nc(C)cc(C(F)(F)F)c3C#N)C(=O)N(C)c3ccc(F)cc32)CC1` (mixture of isomers) [Example 33A, 2-(((S)-6-((S/R)-3-(4-Acryloylpiperazin-1-yl)-2-hydroxypropyl)-8-fluoro-1-methyl-2-oxo-1,2,3,4,5,6-hexahydrobenzo[b][1,4]diazocin-3-yl)amino)-6-methyl-4-(trifluoromethyl)nicotinonitrile], for which the kinact/KI was 150000 M⁻¹ s⁻¹. Consider `Cc1cc(C(F)(F)F)c(C#N)c(N[C@H]2CCN(CC(O)CN3CCN(C(=O)/C=C/CN(C)C)CC3)c3cc(F)ccc3N(C)C2=O)n1` (mixture of isomers) [Example 34A, 2-(((S)-6-((S/R)-3-(4-((E)-4-(Dimethylamino)but-2-enoyl)piperazin-1-yl)-2-hydroxypropyl)-8-fluoro-1-methyl-2-oxo-1,2,3,4,5,6-hexahydrobenzo[b][1,4]diazocin-3-yl)amino)-6-methyl-4-(trifluoromethyl)nicotinonitrile], for which the kinact/KI was found to be 190000 M⁻¹ s⁻¹. Same read-out and setting: to `C=CC(=O)N1CC(N2CC(=O)N(C)C(CN3CC[C@H](Nc4nc(C)cc(C(F)(F)F)c4C#N)C(=O)N(C)c4cccc(F)c43)C2)C1` (mixture of isomers) [Example 58A, 2-(((S)-6-(((S/R)-4-(1-Acryloylazetidin-3-yl)-1-methyl-6-oxopiperazin-2-yl)methyl)-7-fluoro-1-methyl-2-oxo-1,2,3,4,5,6-hexahydrobenzo[b][1,4]diazocin-3-yl)amino)-6-methyl-4-(trifluoromethyl)nicotinonitrile] belongs 60000 M⁻¹ s⁻¹. With `C=CC(=O)N1CCN2CCN(CCN3CC[C@H](Nc4nc(C)cc(C(F)(F)F)c4C#N)C(=O)N(C)c4cccc(F)c43)CC2C1` (mixture of isomers) [Example 72B, 2-(((S)-6-(2-((S/R)-8-acryloyloctahydro-2H-pyrazino[1,2-a]pyrazin-2-yl)ethyl)-7-fluoro-1-methyl-2-oxo-1,2,3,4,5,6-hexahydrobenzo[b][1,4]diazocin-3-yl)amino)-6-methyl-4-(trifluoromethyl)nicotinonitrile], the kinact/KI came out at 630000 M⁻¹ s⁻¹. For the molecule `CO[C@H]1CN(C(=O)/C=C/CN(C)C)C[C@@H]1C(=O)N(C)CCN1CC[C@H](Nc2nc(C)cc(C(F)(F)F)c2C#N)C(=O)N(C)c2cccc(F)c21` (relative stereo) [Example 28, (rel-3S,4R)—N-(2-((S)-4-((3-Cyano-6-methyl-4-(trifluoromethyl)pyridin-2-yl)amino)-10-fluoro-6-methyl-5-oxo-3,4,5,6-tetrahydrobenzo[b][1,4]diazocin-1(2H)-yl)ethyl)-1-((E)-4-(dimethylamino)but-2-enoyl)-4-methoxy-N-methylpyrrolidine-3-carboxamide], the kinact/KI (read-out: Kinact/KI) stood at 560000 M⁻¹ s⁻¹.

For `CO[C@H]1CN(C(=O)/C=C/CN(C)C)C[C@@H]1COCCN1CC[C@H](Nc2nc(C)cc(C(F)(F)F)c2C#N)C(=O)N(C)c2cccc(F)c21` (relative stereo) [Example 48, 2-(((S)-6-(2-(((rel-3R,4R)-1-((E)-4-(Dimethylamino)-but-2-enoyl)-4-methoxypyrroli-din-3-yl)methoxy)-ethyl)-7-fluoro-1-methyl-2-oxo-1,2,3,4,5,6-hexa-hydrobenzo[b] [1,4]diazocin-3-yl)amino)-6-meth-yl-4-(trifluoro-methyl)nicotino-nitrile], the kinact/KI (read-out: Kinact/KI) is 680000 M⁻¹ s⁻¹. Turning to `Cc1cc(C(F)(F)F)c(C#N)c(N[C@H]2CCN(CC(O)CN3CCN(C(=O)/C=C/CN(C)C)CC3)c3c(F)cccc3N(C)C2=O)n1` (single isomer, unassigned) [Example 32B], for the setting “read-out: Kinact/KI”, the kinact/KI is 1e+06 M⁻¹ s⁻¹. Turning to `C=CC(=O)N1CCN(CC(O)CN2CC[C@H](Nc3nc(C)cc(C(F)(F)F)c3C#N)C(=O)N(C)c3ccc(F)cc32)CC1` (single isomer, unassigned) [Example 33B], the kinact/KI (read-out: Kinact/KI) is 120000 M⁻¹ s⁻¹. For the molecule `Cc1cc(C(F)(F)F)c(C#N)c(N[C@H]2CCN(CC(O)CN3CCN(C(=O)/C=C/CN(C)C)CC3)c3cc(F)ccc3N(C)C2=O)n1` (single isomer, unassigned) [Example 34B], for the setting “read-out: Kinact/KI”, the kinact/KI was found to be 680000 M⁻¹ s⁻¹.
